“Also recorded” adds a separate entry of the source.

In data set [1] the test system is human Neurons. Put plainly: Transwell (Boyden chamber) migration assay of human neurons towards chemoattractant-soaked agarose beads. To be noted: agarose beads soaked with 30 ng/ml factor in lower well; 20 hours. The format is cell-based. The protocol:
FIG. 1B Migration of human Neurons monitored after 20 hours in culture towards either medium or plated neural stem cells derived from human embryonic stem cells (lt-hESNSC) or agarose beads pre-soaked with BDNF, EGF, SDF1, SCF, PDGF, FGF2 or VEGF. Bars represent percentage of migrated neurons (*P<0.03; Statistical significance was determined in relation to medium control).
(§1) One way to study migration at the cellular level is to use microchemotaxis chambers (Boyden chambers; see FIG. 1A) (Richards & McCullough, 1984). A membrane separates the upper and the lower part of the chamber. Cells are plated on the PO/LN coated membrane that separates the upper and the lower well. Chemoattractants are introduced in the well of the lower compartment e.g., by soaking agarose beads (affi-gel blue gel) with the corresponding chemoattractants. 100 μl of the pre-soaked beads are introduced in the lower well and covered with medium before placing the upper well on top. The chemoattractant will be released over time, thus creating a chemoattractive gradient. If the agent acts as a chemoattractant, the attached cells will migrate through the filter towards the gradient of the attracting factor. Small pore sizes (8 μm) require active migration rather than passive falling of the cells through the filter.
In this study agarose beads were soaked with either 30 ng/ml EGF, BDNF, SDF1, SCF, PDFG-AA, FGF2 or VEGF (FIG. 1B). The chemoattractive effect of NSCs on neurons was studied by plating lt-hESNSC directly in the PO/LN coated lower well before placing the upper well with the attached neurons on top. After a culture period of 20 hours, chambers were fixed with 4% PFA for 10 min. Cells that had not migrated and were still on the upper side of the membrane were scraped off, while the migrated cells on the lower side were DAPI stained and counted.

Data set [2] deals with human Neurons. Put plainly: Dunn chamber migration assay (chemotaxis of immature neurons). The format is cell-based. To be noted: factor 200 ng/ml in outer well only; 6 h recording. The procedure:
FIG. 7A Dunn chamber migration assay. Schematic representation of a direct-viewing Dunn chemotaxis chamber showing the position of the inner well, the bridge, the outer well and the overlying coverslip (a) (Zicha et al., 1991 1998, Zhang et al., 2003). Adopted from Hawksley. Calculation of the forward migration index (FMI) during a 6 h recording period. FMI values can be either positive or negative, depending on the direction in which the cell is migrating (b).
FIG. 7B Directionality analysis of cell movement using scatter plots of cell displacement (c-i). The diagrams orientate such that the position of the outer well of the chamber are vertical (y direction). Each point represents the final position of a cell at the end of the recording period of 6-h; the starting point of migration is fixed at the intersection of the two axes. As control migration of human neurons was monitored in medium only (c). For assessing chemokinesis, equal amounts of FGF2 (d) or VEGF (e) were added to both the outer and the inner wells of the chamber. Chemotaxis was tested by placing FGF2 (f) or VEGF (g) in the outer well only. Migration of human neurons treated with BFBF1120 was monitored towards a FGF2 (h) and VEGF (i) gradient.
Chemotaxis of immature neurons was directly viewed and recorded in stable concentration gradients of FGF2 (200 ng/ml) or VEGF (200 ng/ml), respectively, with or without the addition of BIBF1120 ([…]) using a Dunn chemotaxis chamber (Allen et al., 1998 1998, Zhang et al., 2003). This device is made from a Helber bacteria counting chamber by grinding a circular well in the central platform to leave a 1 mm-wide annular bridge between the inner and the outer well. Chemoattractants added to the outer well of the chamber will diffuse across the bridge to the inner well and form a linear steady gradient within ˜30 min after loading the chamber (Zicha et al., 1991; Webb et al., 1996). To study chemotaxis, the outer well of the Dunn chamber can be filled with medium containing a chemoattractant, whereas the concentric inner well is filled with medium only. Coverslips carrying the cultured cells are inverted and placed onto the chamber. Cell locomotion is recorded through the annular bridge between the concentric inner and outer well. For assessing chemokinesis, the outer and inner wells are filled with equal concentrations of the chemoattractant. A period of 6 h was chosen to assess cell migration.
To determine the efficiency of forward migration during the 6 h recording period, the FMI was calculated as the ratio of forward progress to the total path length (Foxman et al., 1999; Zhang et al.).

The next data set has as its target KDR (Homo sapiens, UniProt P35968). To be noted: cited from earlier work.
Data set [3] has as its system VEGF-induced angiogenesis. As to conditions: rabbit corneal model; cited from earlier work.
Data set [4] has as its system immature neurons in the presence of neural stem/progenitor cells (hES-NSC70+N30). Put plainly: Boyden chamber assay of neural stem/progenitor cells mixed with immature neurons (hES-NSC70+N30) pre-incubated with inhibitor. The format is cell-based, human. To be noted: hES-NSC70+N30 pre-incubated for 30 minutes with agent. The procedure: Bars represent the percentage of migrated neurons after 20 hours in culture towards medium or a chemoattractant either with or without VEGF R2-AB or endostatin treatment. Cell numbers were normalised to the number of plated neurons (*P≦0.02; statistical significance was determined in relation to the control).
as §1, with “If the agent acts as a chemoattractant, the attached cells will migrate through the filter towards the gradient of the attracting factor. Small pore sizes (8 μm) require active migration rather than passive falling of the cells through the filter.” left out
In this study agarose beads were soaked with either 30 ng/ml EGF, BDNF, SDF1, SCF, PDFG-AA, FGF2 or VEGF (FIG. 1B). […] Cells that had not migrated and were still on the upper side of the membrane were scraped off, while the migrated cells on the lower side were DAPI stained and counted. […]

The test system of data set [5] is lt-hESNSC mixed with immature neurons on hippocampal rat slice cultures. Put plainly: Transplantation onto rat hippocampal slice cultures (migration of human neurons from mixed grafts). It is filed as cell-based. The procedure: Using a vibroslicer, 400 μm horizontal sections were generated from the hippocampus of 9-10 day-old Wistar rats. The slices included the dentate gyrus and the entorhinal and temporal cortex (Scheffler et al., 2003; Opitz et al., 2007). They were transferred onto a polyester membrane and cultivated at 35° C., 5% CO2 and saturated air humidity in an initial culture medium containing 25% normal horse serum, which was gradually replaced after 3-5 days by chemically defined, serum-free culture medium based on DMEM/F12, N2 supplement and B27 supplement. Medium was changed every other day and 5-7 days after explantation a cell suspension of 50 000 cells in a 1 μl volume was spotted onto the entorhinal cortex of the slice using an injection device.
For immunohistochemical analysis of slice cultures (FIG. 4), cultures were fixed in 4% paraformaldehyde for 4 hours and subsequently washed several times with PBS. Slices were permeabilized/blocked with 0.1% Triton X-100+10% FCS for 6 hours at 25° C. Incubation with primary antibody was for 16 hours at room temperature, followed by washing steps with PBS for 5 hours. Incubation with the secondary antibodies was for 2 hours at room temperature.
To further investigate whether endostatin can also interfere with the chemoattractive effect of neural stem/progenitor cells on immature neurons in a context closer to an in vivo situation, hippocampal rat slice culture experiments were performed. HES-NSC70+N30 were pre-incubated for 30 minutes in 30 μl Cytocon™-Buffer II with either 2 μl stock solution endostatin (n=9) or with 2 μl of the solvent of endostatin (citric-phosphate buffer) as control (n=9), and then deposited on the entorhinal cortex of hippocampal slice cultures. Cultures of pure human neurons were transplanted as positive control (n=9). The slices were further cultured for 18 days after deposition of the cells. 1 μl/ml endostatin stock solution was continuously applied every day to the slice media.
To further investigate whether BIBF1120 can also interfere with the chemoattractive effect of neural stem/progenitor cells on immature neurons, hippocampal rat slice culture experiments were performed. Lt-hESNSC mixed with purified DCX-EGFP positive neurons (30.0000 lt-hESNSC mixed with 100.000 purified neurons per μl) were pre-incubated for 30 min. in Cytocon™-Buffer II with or without 2 μg/ml BIBF1120, respectively, and then deposited on the entorhinal cortex (EC) of hippocampal slice cultures. The slices were further cultured for 7 days after deposition of the cells. 2 μg/ml BIBF1120 was continuously applied every day to the slice media.

A further data set concerns primary tumor. As to conditions: cited from earlier work.

KDR, sequence (P35968 20-1356): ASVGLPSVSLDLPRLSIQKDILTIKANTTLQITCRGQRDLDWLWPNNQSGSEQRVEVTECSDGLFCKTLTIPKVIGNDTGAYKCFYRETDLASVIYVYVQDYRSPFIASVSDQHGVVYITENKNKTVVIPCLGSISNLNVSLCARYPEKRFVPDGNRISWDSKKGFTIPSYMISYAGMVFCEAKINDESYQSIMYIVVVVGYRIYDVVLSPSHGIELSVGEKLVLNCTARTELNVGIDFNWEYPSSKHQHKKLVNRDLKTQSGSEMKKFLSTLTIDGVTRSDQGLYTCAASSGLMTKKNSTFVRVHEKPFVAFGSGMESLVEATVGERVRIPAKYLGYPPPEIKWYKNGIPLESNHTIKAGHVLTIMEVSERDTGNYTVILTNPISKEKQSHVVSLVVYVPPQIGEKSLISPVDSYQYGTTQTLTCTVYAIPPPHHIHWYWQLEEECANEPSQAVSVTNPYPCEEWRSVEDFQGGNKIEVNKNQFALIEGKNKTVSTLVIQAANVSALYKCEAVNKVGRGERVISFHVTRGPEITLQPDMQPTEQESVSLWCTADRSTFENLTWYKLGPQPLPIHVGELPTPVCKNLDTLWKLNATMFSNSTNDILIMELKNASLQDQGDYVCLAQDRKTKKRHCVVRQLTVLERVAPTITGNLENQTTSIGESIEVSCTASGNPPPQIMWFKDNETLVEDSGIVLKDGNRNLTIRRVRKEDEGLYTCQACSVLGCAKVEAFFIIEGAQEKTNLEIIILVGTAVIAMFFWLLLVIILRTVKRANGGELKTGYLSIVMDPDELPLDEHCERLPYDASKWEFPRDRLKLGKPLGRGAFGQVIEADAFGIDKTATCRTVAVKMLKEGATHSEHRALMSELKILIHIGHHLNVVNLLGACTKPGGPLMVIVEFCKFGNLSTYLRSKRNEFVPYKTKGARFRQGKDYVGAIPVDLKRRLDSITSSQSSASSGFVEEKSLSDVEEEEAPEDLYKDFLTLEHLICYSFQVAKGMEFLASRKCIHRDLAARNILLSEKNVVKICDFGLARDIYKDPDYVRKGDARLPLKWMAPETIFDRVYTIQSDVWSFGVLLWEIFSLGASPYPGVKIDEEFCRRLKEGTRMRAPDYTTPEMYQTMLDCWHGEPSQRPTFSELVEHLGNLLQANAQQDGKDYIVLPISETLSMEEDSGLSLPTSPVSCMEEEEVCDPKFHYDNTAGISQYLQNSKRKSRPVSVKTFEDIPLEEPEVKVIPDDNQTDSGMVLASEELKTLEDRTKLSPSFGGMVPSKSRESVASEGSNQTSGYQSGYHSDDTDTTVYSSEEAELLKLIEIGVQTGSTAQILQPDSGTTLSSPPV

In the case of VEGF, the “chemoattractive effect on neurons in the chamber migration assay” value (from here on “chemoattractive effect on neurons”) in the data set with human Neurons [1] was “neuronal chemoattractants; also recorded: significant chemoattractive effect”. For the same substance, in the data set on human Neurons [2], the “chemotaxis of human neurons towards gradient of the factor” value is given as “neuronal chemoattractants; also recorded: clear directionality of migration”.

With “FGF2: fibroblast growth factor 2, an 18 kDa protein”, the “chemoattractive effect on neurons” value in the data set on human Neurons [1] is listed as “neuronal chemoattractants; also recorded: significant chemoattractive effect”. Further, the “chemotaxis of human neurons towards gradient of the factor” value in the data set with human Neurons [2] is reported as “neuronal chemoattractants; also recorded: clear directionality of migration”.

“PDGF: platelet-derived growth factor, tested as neuronal chemoattractant”: the “chemoattractive effect on neurons” value in the data set on human Neurons [1] is “neuronal chemoattractants; also recorded: significant chemoattractive effect”.

Take ATWLPPR: in the data set with KDR, the “VEGF binding to cell-displayed KDR” value was “abolish”. Further, the VEGF-induced angiogenesis result in data set [3] is “abolished”.

For “SDF1: soluble factor tested as neuronal chemoattractant”, the “chemoattractive effect on neurons” value in the data set on human Neurons [1] is “neuronal chemoattractants”.

Regarding endostatin, the “migration of immature neurons towards PDGF gradient” value in data set [4] (agarose beads releasing PDGF) was “additionally enhanced the effect”. Moreover, the “migration of immature neurons towards media” value in data set [4] (plain agarose beads, 20 hours, vs solvent control) is “significantly enhanced migration; also recorded: most prominent enhancement of migration”. Also, the “migration of single human neurons away from the transplantation core (horizontal)” value in data set [5] (hES-NSC70+N30, endostatin pre-incubation and daily application, day 18) was “up to 800 μm”. The “migration horizontally over the slice compared to control population” value in data set [5] (hES-NSC70+N30, endostatin treated, 18 days after transplantation) was “enhanced migration and integration capacity”. In data set [5] (hES-NSC70+N30, endostatin treated, day 18), the “depth reached along the z-axis” value is reported as 350 μm. Also, the “toxicity during continued treatment” value in the data set on primary tumor (in vivo) is on record as “no toxicity”. For the same substance, the “tumor regression in size” value with primary tumor (recombinant E. coli-derived endostatin added at a site remote from the primary tumor) is “over 150 fold”. The “tumor size after regression” value with primary tumor (recombinant E. coli-derived endostatin) is “less than 1 mm^3”.
